System: Plasmodium berghei
Assay: Luciferase/luciferin-expressing antifolate-resistant parasites were used to infect a culture of HepG2 cells that were pre-incubated with compounds. Infected hepatocytes emit light due to the luciferase reaction. Assay results are presented as the percent inhibition of light emission compared to control. […]
Assay type: functional
Conditions: sporozoite; for IC90: read-out: LUCIFERASE INFECTION ASSAY - IC90
[1] = read-out: LUCIFERASE INFECTION ASSAY - IC50

Row | SMILES | IC50 [1] [µM] | IC90 [µM] | also measured
1 | Cc1ccc(C(O)c2nnc(Nc3cc(C(F)(F)F)ccc3F)s2)cc1 (centres undefined) | > 10 | > 10 | 
2 | Cc1ccc2nc(NC(=O)C(C)Oc3ccccc3)c(C(=O)NC3CCCCC3)n2c1 (centres undefined) |  | > 7.85 | IC50 (HEPG2TOX_HILL_SLOPE 7.98, HEPG2TOX_R_SQUARED 0.0955, PBLUC_HILL_SLOPE 9.58, PBLUC_R_SQUARED 0.283, read-out: LUCIFERASE INFECTION ASSAY - IC50): 6.26 µM
3 | Cc1ccc(C)c(OCC(O)CN2CCc3ccccc3C2)c1 (centres undefined) | > 9.49 | > 9.49 | 
4 | CCOC(=O)c1c(-c2ccccc2)csc1NC(=O)C(C)OC(=O)c1ccccc1NS(=O)(=O)c1cccc(C(F)(F)F)c1 (centres undefined) | > 10 | > 10 | 
5 | O/N=C(\c1ccc(Cl)cc1)c1cc2ccccc2o1 |  | > 12.1 | IC50 (PBLUC_HILL_SLOPE 1.16, PBLUC_R_SQUARED 0.26, read-out: LUCIFERASE INFECTION ASSAY - IC50): 6.29 µM
6 | Cc1nn(CC(=O)Nc2cc(C(F)(F)F)ccc2Oc2ccc(Br)cc2)c(=O)c(C#N)c1C | > 10 | > 10 | 
7 | COc1ccc(CC(N)c2csc(NC(=O)c3cc(C(C)(C)C)nn3Cc3ccccc3)n2)cc1 (centres undefined) |  | 5.64 | IC50 (HEPG2TOX_HILL_SLOPE 1.31, HEPG2TOX_R_SQUARED 0.716, PBLUC_HILL_SLOPE 7.57, PBLUC_R_SQUARED 0.705, read-out: LUCIFERASE INFECTION ASSAY - IC50): 4.22 µM
8 | O=C1CC2(CCCC2)C(=O)N1CC(O)c1ccccc1 (centres undefined) | > 10 | > 10 | 
9 | Cn1/c(=N/C(=O)c2ccc(=O)[nH]c2)sc2ccccc21 |  | > 10 | IC50 (HEPG2TOX_HILL_SLOPE 1.38, HEPG2TOX_R_SQUARED 0.749, PBLUC_HILL_SLOPE 1.3, PBLUC_R_SQUARED 0.494, read-out: LUCIFERASE INFECTION ASSAY - IC50): 2.61 µM
10 | CC(C)(C)c1cc(C(=O)N/N=C/c2ccc([N+](=O)[O-])s2)[nH]n1 |  | > 10.3 | IC50 (PBLUC_HILL_SLOPE 1.97, PBLUC_R_SQUARED 0.294, read-out: LUCIFERASE INFECTION ASSAY - IC50): 3.6 µM
11 | c1coc(-c2cn3c(-c4ccsc4)cnc3cn2)c1 |  | > 12.3 | IC50 (FFLUC_HILL_SLOPE 11.6, FFLUC_R_SQUARED 0.514, read-out: LUCIFERASE INFECTION ASSAY - IC50): > 12.3 µM
12 | COc1ccccc1N1C(C)=CC(=C(C#N)c2nc3ccccc3s2)C=C1C |  | > 10 | IC50 (FFLUC_HILL_SLOPE 10.1, FFLUC_R_SQUARED 0.663, HEPG2TOX_HILL_SLOPE 9.46, HEPG2TOX_R_SQUARED 0.504, PBLUC_HILL_SLOPE 1.94, PBLUC_R_SQUARED 0.582, read-out: LUCIFERASE INFECTION ASSAY - IC50): 3.83 µM
13 | O=C(Nc1cccc(Cl)c1)C1=COC2=NC(=O)N(Cc3cccc(Cl)c3)CCN12 |  | > 10 | IC50 (HEPG2TOX_HILL_SLOPE 3.25, HEPG2TOX_R_SQUARED 0.784, PBLUC_HILL_SLOPE 3.78, PBLUC_R_SQUARED 0.178, read-out: LUCIFERASE INFECTION ASSAY - IC50): 6.88 µM
14 | Nc1ncc(-c2ccc(F)c(Cl)c2)cc1-c1cccc(O)c1 | > 10.5 | > 10.5 | 
15 | CN(CC(=O)Nc1nc(C23CC4CC(CC(C4)C2)C3)cs1)C(=O)c1ccco1 |  | 4.63 | IC50 (HEPG2TOX_HILL_SLOPE 8.2, HEPG2TOX_R_SQUARED 0.447, PBLUC_HILL_SLOPE 10.5, PBLUC_R_SQUARED 0.337, read-out: LUCIFERASE INFECTION ASSAY - IC50): 3.76 µM
16 | Fc1ccc(-c2nc3ccc(Cl)cc3[nH]2)cc1 | > 13.4 | > 13.4 | 
17 | O=C(NC1CCN(c2nccc(C(F)(F)F)n2)CC1)c1cccs1 |  | 4.85 | IC50 (PBLUC_HILL_SLOPE 2.13, PBLUC_R_SQUARED 0.731, read-out: LUCIFERASE INFECTION ASSAY - IC50): 1.72 µM
18 | CCN(c1ccccc1)S(=O)(=O)c1cc(NC(=O)NC23CC4(C)CC(C)(CC(C)(C4)C2)C3)ccc1Cl |  | 6.3 | IC50 (HEPG2TOX_HILL_SLOPE 3.39, HEPG2TOX_R_SQUARED 0.973, PBLUC_HILL_SLOPE 5.7, PBLUC_R_SQUARED 0.283, read-out: LUCIFERASE INFECTION ASSAY - IC50): 4.28 µM
19 | CCCCNC(=O)c1c(NC(=O)c2ccc(Cl)cc2Cl)nc2ccc(C)cn12 |  | 1.73 | IC50 (FFLUC_HILL_SLOPE 0.85, FFLUC_R_SQUARED 0.0513, HEPG2TOX_HILL_SLOPE 0.9, HEPG2TOX_R_SQUARED 0.94, PBLUC_HILL_SLOPE 2.97, PBLUC_R_SQUARED 0.791, read-out: LUCIFERASE INFECTION ASSAY - IC50): 0.826 µM
20 | O=C(CSc1nnc(Nc2ccc(Oc3ccccc3)cc2)s1)c1cccs1 |  | 4.38 | IC50 (FFLUC_HILL_SLOPE 2.69, FFLUC_R_SQUARED 0.808, PBLUC_HILL_SLOPE 3.49, PBLUC_R_SQUARED 0.557, read-out: LUCIFERASE INFECTION ASSAY - IC50): 2.33 µM
21 | COc1ccc(CNC(=O)N(C)CCOc2ccc(OC)cc2)cc1 |  | > 10 | IC50 (FFLUC_HILL_SLOPE 0.273, FFLUC_R_SQUARED 0.253, HEPG2TOX_HILL_SLOPE 16.5, HEPG2TOX_R_SQUARED 0.443, PBLUC_HILL_SLOPE 9.82, PBLUC_R_SQUARED 0.776, read-out: LUCIFERASE INFECTION ASSAY - IC50): 8.44 µM

Row | SMILES | IC50 [1] [µM] | IC90 [µM] | also measured
22 | FC(F)Sc1ccc2nc3ccccc3c(N3CCOCC3)c2c1 |  | 0.134 | IC50 (PBLUC_HILL_SLOPE 15.6, PBLUC_R_SQUARED 0.79, read-out: LUCIFERASE INFECTION ASSAY - IC50): 0.117 µM
23 | OC1CCN(c2nn3cc(-c4ccccc4)nc3s2)CC1 |  | 0.954 | IC50 (FFLUC_HILL_SLOPE 1.04, FFLUC_R_SQUARED 0.865, PBLUC_HILL_SLOPE 0.617, PBLUC_R_SQUARED 0.864, read-out: LUCIFERASE INFECTION ASSAY - IC50): 0.0272 µM
24 | N#CC(C#N)=NNc1cc(F)c(Br)cc1F |  | 4.79 | IC50 (PBLUC_HILL_SLOPE 13.7, PBLUC_R_SQUARED 0.287, read-out: LUCIFERASE INFECTION ASSAY - IC50): 4.08 µM
25 | Cc1nc(SCC(=O)Nc2ccccc2C#N)c2c(-c3cccs3)csc2n1 |  | > 10 | IC50 (PBLUC_HILL_SLOPE 4.22, PBLUC_R_SQUARED 0.391, read-out: LUCIFERASE INFECTION ASSAY - IC50): 6.05 µM
26 | CC(C)N(c1ccccc1)c1ccc(NC(=O)Nc2ccccc2)cc1 |  | 3.58 | IC50 (PBLUC_HILL_SLOPE 27.4, PBLUC_R_SQUARED 0.0577, read-out: LUCIFERASE INFECTION ASSAY - IC50): 3.31 µM
27 | COc1ccc(NC(=O)C(C(=O)Nc2ccc(OC)cc2)C23CC4CC(CC(C4)C2)C3)cc1 | 7.12 | > 10 | 
28 | Nc1c(-c2ccccc2)c(CN2CCN(Cc3ccccc3)CC2)nn1-c1ccc(Cl)cc1 |  | 8.97 | IC50 (HEPG2TOX_HILL_SLOPE 3.47, HEPG2TOX_R_SQUARED 0.813, PBLUC_HILL_SLOPE 2.28, PBLUC_R_SQUARED 0.79, read-out: LUCIFERASE INFECTION ASSAY - IC50): 3.42 µM
29 | CCOc1cc(/C=C2\S/C(=N\C3CCCC3)NC2=O)cc(Br)c1OCC |  | 3.94 | IC50 (HEPG2TOX_HILL_SLOPE 17, HEPG2TOX_R_SQUARED 0.811, PBLUC_HILL_SLOPE 15.3, PBLUC_R_SQUARED 0.445, read-out: LUCIFERASE INFECTION ASSAY - IC50): 3.41 µM
30 | Cc1ccc(CN(C)c2ccc([N+](=O)[O-])cc2Cl)o1 | > 10 | > 10 | 
31 | Cc1ccc(C)c(OC2CCN(C(=O)Nc3cc(C)on3)CC2)c1 |  | 1.37 | IC50 (HEPG2TOX_HILL_SLOPE 1.23, HEPG2TOX_R_SQUARED 0.839, PBLUC_HILL_SLOPE 15.3, PBLUC_R_SQUARED 0.595, read-out: LUCIFERASE INFECTION ASSAY - IC50): 1.19 µM
32 | COc1ccc(/C=C2\CSc3ccc(Cl)cc3C2=O)cc1 |  | 5.42 | IC50 (HEPG2TOX_HILL_SLOPE 3.81, HEPG2TOX_R_SQUARED 0.977, PBLUC_HILL_SLOPE 10.6, PBLUC_R_SQUARED 0.089, read-out: LUCIFERASE INFECTION ASSAY - IC50): 4.41 µM
33 | CNc1snc(C)c1C(=O)OCc1cc(C(=O)OC)c(C)o1 |  | 2.41 | IC50 (HEPG2TOX_HILL_SLOPE 0.962, HEPG2TOX_R_SQUARED 0.934, PBLUC_HILL_SLOPE 25, PBLUC_R_SQUARED 0.565, read-out: LUCIFERASE INFECTION ASSAY - IC50): 2.2 µM
34 | CC(=O)NC12CC3CC(C1)CC(C(=O)Nc1ccc4c(c1)-c1ccccc1C4)(C3)C2 |  | 5.37 | IC50 (PBLUC_HILL_SLOPE 1.58, PBLUC_R_SQUARED 0.82, read-out: LUCIFERASE INFECTION ASSAY - IC50): 1.34 µM
35 | COC(=O)c1cccc(OC(=O)/C=C/c2ccc(-c3ccccc3)s2)c1 | > 10 | > 10 | 
36 | Cc1ccc(S(=O)(=O)c2nc(-c3ccccc3)oc2S(=O)(=O)CC(=O)NC(C)C)cc1 | > 10 | > 10 | 
37 | CC(C)CNC(=O)CN1CCN(c2nc(-c3cccs3)nc3sc4c(c23)CCC4)CC1 | 3.4 | 3.94 | 
38 | OC(c1cc(F)c(F)c(F)c1)c1nnc(Nc2cccc(Cl)c2)s1 (centres undefined) | > 10 | > 10 | 
39 | Fc1ccc(-c2cs/c(=N\CC3CCCO3)n2/N=C/c2ccccc2F)cc1 (centres undefined) |  | > 10 | IC50 (HEPG2TOX_HILL_SLOPE 2.73, HEPG2TOX_R_SQUARED 0.938, PBLUC_HILL_SLOPE 4.49, 0.768, PBLUC_R_SQUARED 0.141, 0.452, read-out: LUCIFERASE INFECTION ASSAY - IC50): 5.54 µM
40 | CCNC(=O)N1CCc2nc(NCc3cccc(Oc4ccccc4)c3)ncc2C1 |  | 3.94 | IC50 (HEPG2TOX_HILL_SLOPE 10.3, HEPG2TOX_R_SQUARED 0.577, PBLUC_HILL_SLOPE 136, PBLUC_R_SQUARED 0.208, read-out: LUCIFERASE INFECTION ASSAY - IC50): 3.87 µM
41 | c1ccc(CN2CCC(Nc3nc(-c4ccccn4)nc4scc(-c5ccccc5)c34)CC2)cc1 | > 10 | > 10 | 
42 | O=C(Nc1ccc(Oc2cccc3cccnc23)cc1)c1cccs1 | > 9.53 | > 9.53 | 

Reference: ChEMBL document CHEMBL4483862, “Open-source discovery of chemical leads for next-generation chemoprotective antimalarials” (2018)
